The subject of data set [1] is Candida albicans. Put plainly: Antifungal activity against early stage preformed Candida albicans ATCC 10231 biofilm by XTT reduction assay. In kind it is functional. (Tetrazolium dyes change colour on reduction, which living cells bring about.)
The subject of data set [2] is Candida albicans. Nature of the data set: Inhibition of biofilm formation of Candida albicans ATCC 10231 by XTT reduction assay. In kind it is functional.
Data set [3] deals with Candida albicans. Nature of the data set: Antifungal activity against mature preformed Candida albicans ATCC 10231 biofilm by XTT reduction assay. In kind it is functional.
Data set [4] concerns Candida albicans. Nature of the data set: Antifungal activity against planktonically grown Candida albicans ATCC 10231 by CLSI M27 A3 broth microdilution method. In kind it is functional.
Another data set is described as follows: in vitro. The settings on record: human, NCI-H292 cells.
Data set [5] has as its system Candida albicans. Put plainly: Ratio of compound MIC to fluconazole MIC for biofilm formation of Candida albicans ATCC 10231 by XTT reduction assay. In kind it is functional.

Converted amounts (≈) assume the structure as drawn.

Description for in vitro: Cytotoxicity against human NCI-H292 cells assessed as reduction in viable cells by MTT assay

Consider `CCCOC(=O)/C=C/c1ccc(O)c(O)c1`, for which the MIC50 against Candida albicans [1] is 256 µg/mL (≈ 1150 µM); in the data set on Candida albicans [2], 256 µg/mL (≈ 1150 µM); in the data set with Candida albicans [3], 256 µg/mL (≈ 1150 µM); with Candida albicans [4], 128 µg/mL (≈ 576 µM).

For the compound `COc1ccc(OC(=O)/C=C/c2ccc(O)c(O)c2)cc1F`, the MIC50 turned out to be 256 µg/mL (≈ 841 µM) against Candida albicans [2], 256 µg/mL (≈ 841 µM) in the data set on Candida albicans [3] and 128 µg/mL (≈ 421 µM) in the data set on Candida albicans [4].

For orientation: CC50 means the concentration at which the toxic effect on the cells reaches its halfway point. A lower CC50 goes with harm at low concentration. `O=C(/C=C/c1ccc(O)c(O)c1)OCc1ccc([N+](=O)[O-])o1`: the MIC50 came out at 64 µg/mL (≈ 210 µM) in the data set on Candida albicans [1], 32 µg/mL (≈ 105 µM) in the data set with Candida albicans [2], 128 µg/mL (≈ 419 µM) against Candida albicans [3] and 16 µg/mL (≈ 52.4 µM) in the data set with Candida albicans [4]. This compound also showed a CC50 in the data set “in vitro” of 192 µg/mL (≈ 627 µM).

For `O=C(/C=C/c1ccccc1)OCc1ccc([N+](=O)[O-])o1`, the MIC50 with Candida albicans [1] came out at 32 µg/mL (≈ 117 µM); against Candida albicans [2], 32 µg/mL (≈ 117 µM); against Candida albicans [3], 64 µg/mL (≈ 234 µM); in the data set with Candida albicans [4], 2 µg/mL (≈ 7.32 µM). The compound further displayed a CC50 in the data set “in vitro” of 174 µg/mL (≈ 638 µM).

Turning to `O=C(CCc1ccc(O)c(O)c1)OCc1ccc([N+](=O)[O-])o1`, the MIC50 with Candida albicans [1] came to 128 µg/mL (≈ 417 µM); with Candida albicans [2], 128 µg/mL (≈ 417 µM); with Candida albicans [3], 128 µg/mL (≈ 417 µM); in the data set with Candida albicans [4], 64 µg/mL (≈ 208 µM). Besides, in the data set “in vitro”, the CC50 amounted to 257 µg/mL (≈ 835 µM).

For the compound `O=C(OCc1ccc([N+](=O)[O-])o1)c1ccc(O)c(O)c1`, the MIC50 against Candida albicans [1] stood at 64 µg/mL (≈ 229 µM); against Candida albicans [2], 16 µg/mL (≈ 57.3 µM); against Candida albicans [3], 64 µg/mL (≈ 229 µM); with Candida albicans [4], 16 µg/mL (≈ 57.3 µM). This compound yielded a CC50 in “in vitro” of 132 µg/mL (≈ 473 µM). Further, the Ratio in the data set with Candida albicans [5] came to 8.

Consider `CC(C)COC(=O)/C=C/c1ccc(O)c(O)c1`, for which the MIC50 in the data set on Candida albicans [2] is 256 µg/mL (≈ 1080 µM); against Candida albicans [3] it was 256 µg/mL (≈ 1080 µM); with Candida albicans [4], 128 µg/mL (≈ 542 µM).

Consider `O=C(O)/C=C/c1ccc(O)c(O)c1` [CAFFEIC ACID], for which the MIC50 was found to be 256 µg/mL (≈ 1420 µM) against Candida albicans [1], 256 µg/mL (≈ 1420 µM) against Candida albicans [2], 256 µg/mL (≈ 1420 µM) in the data set on Candida albicans [3] and 128 µg/mL (≈ 710 µM) in the data set on Candida albicans [4].

For `CCOC(=O)/C=C/c1ccc(O)c(O)c1` [ETHYL CAFFEATE], the MIC50 in the data set with Candida albicans [2] amounted to 256 µg/mL (≈ 1230 µM); with Candida albicans [3], 256 µg/mL (≈ 1230 µM); in the data set on Candida albicans [4], 128 µg/mL (≈ 615 µM).

As to `OC(Cn1cncn1)(Cn1cncn1)c1ccc(F)cc1F` [FLUCONAZOLE], the MIC50 is 256 µg/mL (≈ 836 µM) against Candida albicans [1], 128 µg/mL (≈ 418 µM) in the data set on Candida albicans [2], 256 µg/mL (≈ 836 µM) against Candida albicans [3] and 0.5 µg/mL (≈ 1.63 µM) in the data set on Candida albicans [4].

Consider `COC(=O)/C=C/c1ccc(O)c(O)c1` [METHYLCAFFEATE], for which the MIC50 stood at 256 µg/mL (≈ 1320 µM) against Candida albicans [2], 256 µg/mL (≈ 1320 µM) against Candida albicans [3] and 128 µg/mL (≈ 659 µM) against Candida albicans [4].

Source of the values: ChEMBL document CHEMBL3124821, “Activity of caffeic acid derivatives against Candida albicans biofilm” (Bioorg Med Chem Lett, 2014).
